# Experimental data from the kinase profiling compilation of Christmann-Franck et al. (2016).
# Columns and labels:
# Assay in all cases: radiometric filter-binding kinase assay, Kinase HotSpot
# Details in all cases: compound 0.5 µM; ATP 10 µM
# CAMK1D (human) = CAMK1D (human) (UniProt Q8IU85)
# CAMK4 (human) = CAMK4 (human) (UniProt Q16566)
# CAMKK1 (human) = CAMKK1 (human) (UniProt Q8N5S9)
# CDK4 CCND1 (human) = CDK4 CCND1 (human) (UniProt P24385+P11802)
# CDK5 CDK5R1 p35 (human) = CDK5 CDK5R1 p35 (human) (UniProt Q00535+Q15078)
# CSNK1D (human) = CSNK1D (human) (UniProt P48730)
# CSNK1G3 (human) = CSNK1G3 (human) (UniProt Q9Y6M4)
# CSNK2A2 (human) = CSNK2A2 (human) (UniProt P19784)
# DYRK3 (human) = DYRK3 (human) (UniProt O43781)
# EPHA2 (human) = EPHA2 (human) (UniProt P29317)
# FGFR4 (human) = FGFR4 (human) (UniProt P22455)
# GSK3A (human) = GSK3A (human) (UniProt P49840)
# HIPK4 (human) = HIPK4 (human) (UniProt Q8NE63)
# MAP2K2 (human) = MAP2K2 (human) (UniProt P36507)
# MAP3K10 (human) = MAP3K10 (human) (UniProt Q02779)
# MAPK1 (human) = MAPK1 (human) (UniProt P28482)
# MAPK3 (human) = MAPK3 (human) (UniProt P27361)
# Chain of MAPK3 (human) (P27361 whole entry, looked up): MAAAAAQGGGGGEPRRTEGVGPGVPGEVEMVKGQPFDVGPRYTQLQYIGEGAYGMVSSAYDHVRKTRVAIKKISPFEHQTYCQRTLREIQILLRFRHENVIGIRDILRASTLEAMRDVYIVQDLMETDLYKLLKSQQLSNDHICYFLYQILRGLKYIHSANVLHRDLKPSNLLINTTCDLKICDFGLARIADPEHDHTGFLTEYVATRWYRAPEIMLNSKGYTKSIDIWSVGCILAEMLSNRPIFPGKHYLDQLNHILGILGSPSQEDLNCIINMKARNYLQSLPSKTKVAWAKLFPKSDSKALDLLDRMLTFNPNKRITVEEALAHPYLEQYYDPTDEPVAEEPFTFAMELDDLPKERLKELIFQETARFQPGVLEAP
# MAPKAPK3 (human) = MAPKAPK3 (human) (UniProt Q16644)
# MST1R (human) = MST1R (human) (UniProt Q04912)
# NEK11 (human) = NEK11 (human) (UniProt Q8NG66)
# Chain of NEK11 (human) (Q8NG66 whole entry, looked up): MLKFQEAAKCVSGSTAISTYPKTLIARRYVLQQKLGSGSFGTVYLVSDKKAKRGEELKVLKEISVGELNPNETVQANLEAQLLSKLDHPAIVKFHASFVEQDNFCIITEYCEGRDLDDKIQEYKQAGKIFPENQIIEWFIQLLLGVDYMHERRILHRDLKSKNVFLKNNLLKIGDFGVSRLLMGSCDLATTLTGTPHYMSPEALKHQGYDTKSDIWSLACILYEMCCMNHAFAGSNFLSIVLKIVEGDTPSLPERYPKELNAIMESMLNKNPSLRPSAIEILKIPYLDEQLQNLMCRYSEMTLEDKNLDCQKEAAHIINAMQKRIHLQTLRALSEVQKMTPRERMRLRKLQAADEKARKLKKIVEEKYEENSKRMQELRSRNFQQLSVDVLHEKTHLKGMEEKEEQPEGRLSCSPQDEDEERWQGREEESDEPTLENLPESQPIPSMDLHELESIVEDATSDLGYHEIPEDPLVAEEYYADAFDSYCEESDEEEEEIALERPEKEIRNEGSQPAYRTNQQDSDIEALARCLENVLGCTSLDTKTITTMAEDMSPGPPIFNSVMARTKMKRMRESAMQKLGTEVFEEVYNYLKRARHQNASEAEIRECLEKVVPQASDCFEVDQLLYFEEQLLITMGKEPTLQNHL
# NEK9 (human) = NEK9 (human) (UniProt Q8TD19)
# NLK (human) = NLK (human) (UniProt Q9UBE8)
# OXSR1 (human) = OXSR1 (human) (UniProt O95747)
# PDGFRB (human) = PDGFRB (human) (UniProt P09619)
# PHKG1 (human) = PHKG1 (human) (UniProt Q16816)
# Chain of PHKG1 (human) (Q16816 whole entry, looked up): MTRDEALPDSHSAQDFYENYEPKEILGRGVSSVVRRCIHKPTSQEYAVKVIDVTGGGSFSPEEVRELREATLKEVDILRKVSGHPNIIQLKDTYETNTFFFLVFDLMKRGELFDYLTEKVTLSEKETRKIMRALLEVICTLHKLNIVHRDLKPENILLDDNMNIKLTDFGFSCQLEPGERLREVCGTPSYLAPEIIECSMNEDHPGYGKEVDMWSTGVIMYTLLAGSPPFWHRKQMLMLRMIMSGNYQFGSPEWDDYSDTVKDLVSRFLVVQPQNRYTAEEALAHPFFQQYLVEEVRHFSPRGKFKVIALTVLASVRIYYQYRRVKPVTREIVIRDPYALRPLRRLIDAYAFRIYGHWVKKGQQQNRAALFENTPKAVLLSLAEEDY
# PKN1 (human) = PKN1 (human) (UniProt Q16512)
# Chain of PKN1 (human) (Q16512 whole entry, looked up): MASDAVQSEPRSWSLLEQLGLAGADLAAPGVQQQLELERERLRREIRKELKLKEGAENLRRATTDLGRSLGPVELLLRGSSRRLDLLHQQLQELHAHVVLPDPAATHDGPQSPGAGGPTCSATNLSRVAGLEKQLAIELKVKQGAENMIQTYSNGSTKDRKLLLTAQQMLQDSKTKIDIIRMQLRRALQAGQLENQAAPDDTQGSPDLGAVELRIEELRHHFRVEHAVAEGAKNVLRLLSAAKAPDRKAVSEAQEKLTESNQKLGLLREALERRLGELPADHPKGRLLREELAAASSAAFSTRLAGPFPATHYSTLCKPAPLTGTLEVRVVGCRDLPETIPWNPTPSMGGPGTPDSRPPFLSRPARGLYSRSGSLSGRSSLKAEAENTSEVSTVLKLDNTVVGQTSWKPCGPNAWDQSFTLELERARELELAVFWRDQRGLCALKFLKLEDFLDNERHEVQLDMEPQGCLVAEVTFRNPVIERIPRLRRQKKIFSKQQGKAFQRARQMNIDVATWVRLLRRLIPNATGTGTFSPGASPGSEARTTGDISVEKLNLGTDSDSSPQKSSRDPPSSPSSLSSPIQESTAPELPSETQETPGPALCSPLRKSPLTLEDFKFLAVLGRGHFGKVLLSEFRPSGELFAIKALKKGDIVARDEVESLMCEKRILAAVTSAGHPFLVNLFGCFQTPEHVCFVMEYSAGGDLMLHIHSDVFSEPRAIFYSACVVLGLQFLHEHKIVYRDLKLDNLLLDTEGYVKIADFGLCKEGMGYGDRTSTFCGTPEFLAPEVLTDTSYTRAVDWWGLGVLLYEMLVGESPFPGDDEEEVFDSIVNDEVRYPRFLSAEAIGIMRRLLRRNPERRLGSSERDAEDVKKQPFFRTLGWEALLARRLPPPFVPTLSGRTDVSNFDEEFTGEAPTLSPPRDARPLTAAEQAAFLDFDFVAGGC
# PRKCA (human) = PRKCA (human) (UniProt P17252)
# PRKCD (human) = PRKCD (human) (UniProt Q05655)
# PRKD1 (human) = PRKD1 (human) (UniProt Q15139)
# PTK2 (human) = PTK2 (human) (UniProt Q05397)
# ROCK2 (human) = ROCK2 (human) (UniProt O75116)
# RPS6KB2 (human) = RPS6KB2 (human) (UniProt Q9UBS0)
# SRMS (human) = SRMS (human) (UniProt Q9H3Y6)
# Chain of SRMS (human) (Q9H3Y6 whole entry, looked up): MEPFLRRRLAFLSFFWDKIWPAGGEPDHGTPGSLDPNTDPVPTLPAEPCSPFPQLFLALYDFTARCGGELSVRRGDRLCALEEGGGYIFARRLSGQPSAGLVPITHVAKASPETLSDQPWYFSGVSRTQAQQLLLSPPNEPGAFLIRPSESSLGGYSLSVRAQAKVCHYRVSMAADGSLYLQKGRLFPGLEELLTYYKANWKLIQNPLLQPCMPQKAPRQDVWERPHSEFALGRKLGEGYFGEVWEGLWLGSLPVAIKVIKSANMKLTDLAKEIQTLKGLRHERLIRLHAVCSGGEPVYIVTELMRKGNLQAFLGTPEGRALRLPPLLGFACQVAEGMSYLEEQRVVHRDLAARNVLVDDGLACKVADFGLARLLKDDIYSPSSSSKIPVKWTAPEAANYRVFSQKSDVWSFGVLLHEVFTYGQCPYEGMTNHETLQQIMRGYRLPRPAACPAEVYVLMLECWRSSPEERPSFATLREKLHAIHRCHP
# SRPK2 (human) = SRPK2 (human) (UniProt P78362)
# STK10 (human) = STK10 (human) (UniProt O94804)
# STK17A (human) = STK17A (human) (UniProt Q9UEE5)
# STK25 (human) = STK25 (human) (UniProt O00506)
# TSSK1B (human) = TSSK1B (human) (UniProt Q9BXA7)
# TXK (human) = TXK (human) (UniProt P42681)
# [1] = biological target: TYK2 JH1 catalytic (human) (UniProt P29597)
# Chain of TYK2 JH1 catalytic (human) (P29597 whole entry, looked up): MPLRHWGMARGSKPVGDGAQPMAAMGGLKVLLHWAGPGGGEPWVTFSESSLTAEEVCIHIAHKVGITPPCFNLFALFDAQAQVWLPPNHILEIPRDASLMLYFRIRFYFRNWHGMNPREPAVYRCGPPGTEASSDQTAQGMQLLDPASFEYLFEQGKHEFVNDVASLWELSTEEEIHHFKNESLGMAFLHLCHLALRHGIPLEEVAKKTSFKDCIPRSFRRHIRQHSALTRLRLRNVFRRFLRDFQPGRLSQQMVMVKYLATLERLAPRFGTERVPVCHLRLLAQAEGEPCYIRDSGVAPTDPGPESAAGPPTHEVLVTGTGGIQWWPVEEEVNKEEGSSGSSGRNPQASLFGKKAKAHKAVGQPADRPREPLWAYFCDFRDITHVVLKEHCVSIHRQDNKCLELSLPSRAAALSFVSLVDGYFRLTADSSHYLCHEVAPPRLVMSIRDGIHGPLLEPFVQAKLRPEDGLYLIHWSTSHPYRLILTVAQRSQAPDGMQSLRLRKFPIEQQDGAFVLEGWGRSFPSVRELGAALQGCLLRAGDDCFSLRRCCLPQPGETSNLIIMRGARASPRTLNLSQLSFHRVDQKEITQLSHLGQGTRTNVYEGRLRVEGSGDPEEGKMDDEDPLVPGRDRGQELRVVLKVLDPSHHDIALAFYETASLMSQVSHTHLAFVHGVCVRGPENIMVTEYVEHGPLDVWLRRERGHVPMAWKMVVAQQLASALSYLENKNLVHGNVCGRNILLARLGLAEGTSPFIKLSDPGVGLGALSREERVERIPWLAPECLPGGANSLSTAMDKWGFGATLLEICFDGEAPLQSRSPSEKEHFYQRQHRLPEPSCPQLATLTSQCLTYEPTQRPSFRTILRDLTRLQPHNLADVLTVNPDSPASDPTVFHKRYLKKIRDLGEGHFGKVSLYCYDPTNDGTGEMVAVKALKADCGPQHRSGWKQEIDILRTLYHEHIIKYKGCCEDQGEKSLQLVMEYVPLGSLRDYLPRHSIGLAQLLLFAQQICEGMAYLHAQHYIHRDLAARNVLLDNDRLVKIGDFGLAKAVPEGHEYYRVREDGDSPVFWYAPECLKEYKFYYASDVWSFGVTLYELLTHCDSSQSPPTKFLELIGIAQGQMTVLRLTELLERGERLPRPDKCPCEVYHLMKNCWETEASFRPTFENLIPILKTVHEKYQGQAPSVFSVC
# ULK2 (human) = ULK2 (human) (UniProt Q8IYT8)
# YES1 (human) = YES1 (human) (UniProt P07947)
# Chain of YES1 (human) (P07947 whole entry, looked up): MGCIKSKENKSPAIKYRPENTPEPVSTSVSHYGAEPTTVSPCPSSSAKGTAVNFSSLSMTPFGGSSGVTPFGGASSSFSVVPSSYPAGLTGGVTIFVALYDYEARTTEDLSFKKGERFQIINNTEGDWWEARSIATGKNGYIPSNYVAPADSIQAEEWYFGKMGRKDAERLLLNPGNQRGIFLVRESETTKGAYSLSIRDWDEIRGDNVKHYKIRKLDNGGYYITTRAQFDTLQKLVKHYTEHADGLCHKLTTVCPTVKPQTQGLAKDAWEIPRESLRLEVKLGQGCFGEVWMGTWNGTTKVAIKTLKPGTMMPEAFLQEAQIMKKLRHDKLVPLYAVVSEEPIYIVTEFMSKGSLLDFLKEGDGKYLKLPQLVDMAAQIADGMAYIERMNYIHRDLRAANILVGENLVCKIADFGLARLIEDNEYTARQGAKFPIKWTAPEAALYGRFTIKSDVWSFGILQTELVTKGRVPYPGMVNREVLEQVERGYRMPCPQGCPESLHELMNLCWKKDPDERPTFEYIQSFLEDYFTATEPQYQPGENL
# Chain of CAMK4 (human) (Q16566 whole entry, looked up): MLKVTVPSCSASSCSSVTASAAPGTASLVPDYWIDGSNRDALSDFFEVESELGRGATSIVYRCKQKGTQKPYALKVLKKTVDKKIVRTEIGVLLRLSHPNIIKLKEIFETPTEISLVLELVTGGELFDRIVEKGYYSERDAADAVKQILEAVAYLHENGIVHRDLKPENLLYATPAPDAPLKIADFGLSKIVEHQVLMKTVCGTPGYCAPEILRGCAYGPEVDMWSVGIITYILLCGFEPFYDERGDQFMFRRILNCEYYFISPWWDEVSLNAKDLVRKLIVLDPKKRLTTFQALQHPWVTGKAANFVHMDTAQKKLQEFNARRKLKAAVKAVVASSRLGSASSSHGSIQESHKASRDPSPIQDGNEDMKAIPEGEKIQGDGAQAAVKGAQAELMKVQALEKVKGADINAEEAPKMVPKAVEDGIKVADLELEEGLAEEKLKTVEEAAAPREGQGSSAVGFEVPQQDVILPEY
compound,measurement,setting,value
O=C1NC(=O)c2c1c1c3ccccc3[nH]c1c1[nH]c3cc(Br)ccc3c21,residual activity,CAMK1D (human),92.2%
same,residual activity,CAMK4 (human),96.2%
same,residual activity,CAMKK1 (human),99.1%
same,residual activity,CDK4 CCND1 (human),84.9%
same,residual activity,CDK5 CDK5R1 p35 (human),44.1%
same,residual activity,CSNK1D (human),96.9%
same,residual activity,CSNK1G3 (human),94.6%
same,residual activity,CSNK2A2 (human),93.2%
same,residual activity,DYRK3 (human),94.5%
same,residual activity,EPHA2 (human),99.2%
same,residual activity,FGFR4 (human),90.6%
same,residual activity,GSK3A (human),33.9%
same,residual activity,HIPK4 (human),94.1%
same,residual activity,MAP2K2 (human),105%
same,residual activity,MAP3K10 (human),70.4%
same,residual activity,MAPK1 (human),92.4%
same,residual activity,MAPK3 (human),108%
same,residual activity,MAPKAPK3 (human),118%
same,residual activity,MST1R (human),101%
same,residual activity,NEK11 (human),109%
same,residual activity,NEK9 (human),83.6%
same,residual activity,NLK (human),81.7%
same,residual activity,OXSR1 (human),95.8%
same,residual activity,PDGFRB (human),82.6%
same,residual activity,PHKG1 (human),40.7%
same,residual activity,PKN1 (human),66%
same,residual activity,PRKCA (human),72.5%
same,residual activity,PRKCD (human),99.1%
same,residual activity,PRKD1 (human),51.9%
same,residual activity,PTK2 (human),91.8%
same,residual activity,ROCK2 (human),72.7%
same,residual activity,RPS6KB2 (human),83.9%
same,residual activity,SRMS (human),91.5%
same,residual activity,SRPK2 (human),96.2%
same,residual activity,STK10 (human),84.6%
same,residual activity,STK17A (human),29.5%
same,residual activity,STK25 (human),84.4%
same,residual activity,TSSK1B (human),86.5%
same,residual activity,TXK (human),90.3%
same,residual activity,[1],81.1%
same,residual activity,ULK2 (human),86%
same,residual activity,YES1 (human),88.4%
COc1cc2ncnc(Nc3ccc(O)c(Br)c3)c2cc1OC,residual activity,CAMK1D (human),98.6%
same,residual activity,CAMK4 (human),95.6%
same,residual activity,CAMKK1 (human),95.8%
same,residual activity,CDK4 CCND1 (human),101%
same,residual activity,CDK5 CDK5R1 p35 (human),99.6%
same,residual activity,CSNK1D (human),89.7%
same,residual activity,CSNK1G3 (human),101%
same,residual activity,CSNK2A2 (human),89.2%
same,residual activity,DYRK3 (human),95.3%
same,residual activity,EPHA2 (human),80.6%
same,residual activity,FGFR4 (human),103%
same,residual activity,GSK3A (human),131%
same,residual activity,HIPK4 (human),107%
same,residual activity,MAP2K2 (human),86.2%
same,residual activity,MAP3K10 (human),98.2%
same,residual activity,MAPK1 (human),102%
same,residual activity,MAPK3 (human),97%
same,residual activity,MAPKAPK3 (human),96.2%
same,residual activity,MST1R (human),101%
same,residual activity,NEK11 (human),103%
same,residual activity,NEK9 (human),104%
same,residual activity,NLK (human),76.2%
same,residual activity,OXSR1 (human),98.8%
same,residual activity,PDGFRB (human),93.7%
same,residual activity,PHKG1 (human),71.9%
same,residual activity,PKN1 (human),95.6%
same,residual activity,PRKCA (human),109%
same,residual activity,PRKCD (human),97.3%
same,residual activity,PRKD1 (human),70.1%
same,residual activity,PTK2 (human),99.5%
same,residual activity,ROCK2 (human),89.9%
same,residual activity,RPS6KB2 (human),102%
same,residual activity,SRMS (human),90.4%
same,residual activity,SRPK2 (human),63%
same,residual activity,STK10 (human),14.5%
same,residual activity,STK17A (human),72.3%
same,residual activity,STK25 (human),99.6%
same,residual activity,TSSK1B (human),84.7%
same,residual activity,TXK (human),83.3%
same,residual activity,[1],96.5%
same,residual activity,ULK2 (human),104%
same,residual activity,YES1 (human),34.6%
N#CCCc1ccc2c(c1)-c1[nH]c3ccc([N+](=O)[O-])cc3c1CC(=O)N2,residual activity,CAMK1D (human),91.8%
same,residual activity,CAMK4 (human),98.4%
same,residual activity,CAMKK1 (human),86.7%
same,residual activity,CDK4 CCND1 (human),11.8%
same,residual activity,CDK5 CDK5R1 p35 (human),2.6%
same,residual activity,CSNK1D (human),97.4%
same,residual activity,CSNK1G3 (human),89.7%
same,residual activity,CSNK2A2 (human),92.9%
same,residual activity,DYRK3 (human),97.6%
same,residual activity,EPHA2 (human),93.6%
same,residual activity,FGFR4 (human),89.1%
same,residual activity,GSK3A (human),0.804%
same,residual activity,HIPK4 (human),113%
same,residual activity,MAP2K2 (human),90.3%
same,residual activity,MAP3K10 (human),30%
same,residual activity,MAPK1 (human),119%
same,residual activity,MAPK3 (human),95.1%
same,residual activity,MAPKAPK3 (human),96.8%
same,residual activity,MST1R (human),107%
same,residual activity,NEK11 (human),101%
same,residual activity,NEK9 (human),103%
same,residual activity,NLK (human),89.7%
same,residual activity,OXSR1 (human),94.6%
same,residual activity,PDGFRB (human),83.9%
same,residual activity,PHKG1 (human),7.72%
same,residual activity,PKN1 (human),78%
same,residual activity,PRKCA (human),80.9%
same,residual activity,PRKCD (human),74.9%
same,residual activity,PRKD1 (human),87.5%
same,residual activity,PTK2 (human),82.2%
same,residual activity,ROCK2 (human),28.6%
same,residual activity,RPS6KB2 (human),96.1%
same,residual activity,SRMS (human),78.6%
same,residual activity,SRPK2 (human),109%
same,residual activity,STK10 (human),74.1%
same,residual activity,STK17A (human),46.8%
same,residual activity,STK25 (human),91.1%
same,residual activity,TSSK1B (human),59.2%
same,residual activity,TXK (human),67.6%
same,residual activity,[1],48.1%
same,residual activity,ULK2 (human),73.1%
same,residual activity,YES1 (human),35.8%
O=C1NC(=O)c2cc(Nc3ccc(F)cc3)c(Nc3ccc(F)cc3)cc21,residual activity,CAMK1D (human),78.1%
same,residual activity,CAMK4 (human),98.7%
same,residual activity,CAMKK1 (human),90.2%
same,residual activity,CDK4 CCND1 (human),101%
same,residual activity,CDK5 CDK5R1 p35 (human),98.5%
same,residual activity,CSNK1D (human),109%
same,residual activity,CSNK1G3 (human),90.7%
same,residual activity,CSNK2A2 (human),104%
same,residual activity,DYRK3 (human),97.1%
same,residual activity,EPHA2 (human),94.3%
same,residual activity,FGFR4 (human),95.5%
same,residual activity,GSK3A (human),88.2%
same,residual activity,HIPK4 (human),82.5%
same,residual activity,MAP2K2 (human),89.5%
same,residual activity,MAP3K10 (human),90.6%
same,residual activity,MAPK1 (human),121%
same,residual activity,MAPK3 (human),86.1%
same,residual activity,MAPKAPK3 (human),95.9%
same,residual activity,MST1R (human),100%
same,residual activity,NEK11 (human),103%
same,residual activity,NEK9 (human),107%
same,residual activity,NLK (human),103%
same,residual activity,OXSR1 (human),101%
same,residual activity,PDGFRB (human),93.9%
same,residual activity,PHKG1 (human),94.8%
same,residual activity,PKN1 (human),97.7%
same,residual activity,PRKCA (human),99.3%
same,residual activity,PRKCD (human),98.2%
same,residual activity,PRKD1 (human),92.2%
same,residual activity,PTK2 (human),96%
same,residual activity,ROCK2 (human),92.8%
same,residual activity,RPS6KB2 (human),93.9%
same,residual activity,SRMS (human),95.5%
same,residual activity,SRPK2 (human),92.3%
same,residual activity,STK10 (human),79.2%
same,residual activity,STK17A (human),104%
same,residual activity,STK25 (human),101%
same,residual activity,TSSK1B (human),90.2%
same,residual activity,TXK (human),84.1%
same,residual activity,[1],80.6%
same,residual activity,ULK2 (human),84.7%
same,residual activity,YES1 (human),86.6%
